The text below walks through data of patent US10681909B2, “Herbicidal triazoles” (FMC Corporation, priority 2014, dated 2020).

In assay [1] the test system is crabgrass, large. As to the kind of experiment: Test A postemergence. The class given is in vivo, Digitaria sanguinalis. As to conditions: Digitaria sanguinalis, post-emergence, 240 h, 0 to 100 scale (0 no effect, 100 complete control), approx. 10 d, read-out: Plant response rating, Crabgrass, Large; for pest or weed control at 125 g/ha: 125 g ai/ha; for pest or weed control at 500 g/ha: 500 g ai/ha. In short, it runs like this: (§1)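 Herbicidal response was scored on plants treated pre- or postemergence with surfactant-containing, non-phytotoxic solvent formulations. Preemergence meant a directed spray onto soil (loam–sand) holding sown seed; postemergence plants were at one to two leaves.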

In assay [2] the test system is velvetleaf. Put plainly: Test A postemergence. The class given is in vivo, Abutilon theophrasti. To be noted: Abutilon theophrasti, post-emergence, 240 h, 0 to 100 scale (0 no effect, 100 complete control), approx. 10 d, read-out: Plant response rating, Velvetleaf; for pest or weed control at 125 g/ha: 125 g ai/ha; for pest or weed control at 500 g/ha: 500 g ai/ha. In outline:
as §1

The subject of assay [3] is nutsedge, yellow. As to the kind of experiment: Test C preemergence. The class given is in vivo, Cyperus esculentus. To be noted: for Plant response rating (scale of 0 to 100 where 0 is no effect and 100 is complete control): Nutsedge, Yellow, preemergence; for Nutsedge, Yellow plant response rating (0 to 100): Preemergence, visual rating after 13 to 15 d. An excerpt: (§2) Seeds of plant species selected from blackgrass (Alopecurus myosuroides), ryegrass, Italian (Italian ryegrass, Lolium multiflorum), wheat (winter wheat, Triticum aestivum), galium (catchweed bedstraw, Galium aparine), corn (Zea mays), crabgrass, large (large crabgrass, Digitaria sanguinalis), foxtail, giant, (giant foxtail, Setaria faberii), johnsongrass (Sorghum halepense), lambsquarters (Chenopodium album), morningglory (Ipomoea coccinea), nutsedge, yellow (yellow nutsedge, Cyperus esculentus), pigweed (Amaranthus retroflexus), ragweed (common ragweed, Ambrosia elatior), soybean (Glycine max), barnyardgrass (Echinochloa crus-galli), oilseed rape (Brassica napus), waterhemp (common waterhemp, Amaranthus rudis), and velvetleaf (Abutilon theophrasti) were planted into a blend of loam soil and sand and treated preemergence with test chemicals formulated in a non-phytotoxic solvent mixture which included a surfactant. At the same time, plants selected from these crop and weed species and also chickweed (common chickweed, Stellaria media), oat, wild (wild oat, Avena fatua), and kochia (Kochia scoparia), were planted in pots containing Sunshine Redi-Earth® planting medium comprising spaghnum peat moss, vermiculite, starter nutrients and dolomitic limestone and treated with postemergence applications of test chemicals formulated in the same manner. Plants ranged in height from 2 to 18 cm (1- to 4-leaf stage) for postemergence treatments. […] A dash (-) response means no test result.

The test system of assay [4] is waterhemp. As to the kind of experiment: Test C preemergence. As to conditions: for Waterhemp plant response rating (0 to 100): Preemergence, visual rating after 13 to 15 d; for Plant response rating (scale of 0 to 100 where 0 is no effect and 100 is complete control): Waterhemp, preemergence, 250 g ai/ha. Format: in vivo, Amaranthus rudis.
Source text: as §2

For assay [5], the system named is blackgrass. As to the kind of experiment: Test A postemergence. Format: in vivo, Alopecurus myosuroides. As to conditions: 0 to 100 scale (0 no effect, 100 complete control), approx. 10 d. The source says:
Seeds of plant species selected from barnyardgrass (Echinochloa crus-galli), crabgrass, large (large crabgrass, Digitaria sanguinalis), kochia (Kochia scoparia), ragweed (common ragweed, Ambrosia elatior), foxtail, giant (giant foxtail, Setaria faberii), morningglory (Ipomoea spp.), pigweed (Amaranthus retroflexus), velvetleaf (Abutilon theophrasti), ryegrass, Italian (Italian ryegrass, Lolium multiflorum), wheat (Triticum aestivum), and corn (Zea mays) were planted into a blend of loam soil and sand and treated preemergence with a directed soil spray using test chemicals formulated in a non-phytotoxic solvent mixture which included a surfactant.
At the same time, plants selected from these crop and weed species and also blackgrass (Alopecurus myosuroides), and galium (catchweed bedstraw, Galium aparine), were planted in pots containing the same blend of loam soil and sand and treated with postemergence applications of test chemicals formulated in the same manner. Plants ranged in height from 2 to 10 cm and were in the one- to two-leaf stage for the postemergence treatment. Treated plants and untreated controls were maintained in a greenhouse for approximately 10 d, after which time all treated plants were compared to untreated controls and visually evaluated for injury. Plant response ratings, summarized in Table A, are based on a 0 to 100 scale where 0 is no effect and 100 is complete control. A dash (-) response means no test result.

Regarding `Cn1nc(-c2ccc(F)cc2)nc1C(O)c1ccnc(C(F)(F)F)c1` (stereo not drawn) [Compound 14, α-[3-(4-fluorophenyl)-1-methyl-1H-1,2,4-triazol-5-yl]-2-(trifluoromethyl)-4-pyridinemethanol], the pest or weed control at 125 g/ha was 20% in assay [1] and 30% in assay [2]. The pest or weed control at 500 g/ha in assay [1] is 30%; in assay [2], 50%.

For `CCn1nc(-c2ccc(F)cc2)nc1C(O)c1ccnc(C(F)(F)F)c1` (stereo not drawn) [Compound 15, α-[1-Ethyl-3-(4-fluorophenyl)-1H-1,2,4-triazol-5-yl]-2-(trifluoromethyl)-4-pyridinemethanol], the pest or weed control at 125 g/ha in assay [1] and in assay [2] was 0% throughout. Further, the pest or weed control at 500 g/ha in assay [1] was determined as 10%; in assay [2], 0%.

Take `CCCn1nc(-c2ccc(F)cc2)nc1Cc1ccnc(C(F)(F)F)c1` [Compound 17, 4-[[3-(4-fluorophenyl)-1-propyl-1H-1,2,4-triazol-5-yl]methyl]-2-(trifluoromethyl)pyridine]: in assay [1], the pest or weed control at 125 g/ha was found to be 90% and the pest or weed control at 500 g/ha was 90%. Also, in assay [2], the pest or weed control at 125 g/ha is 90% and the pest or weed control at 500 g/ha is 100%.

In the case of `CCn1nc(-c2ccc(F)cc2)nc1C(=O)c1ccnc(C(F)(F)F)c1` [Compound 19, [1-ethyl-3-(4-fluorophenyl)-1H-1,2,4-triazol-5-yl][2-(trifluoromethyl)-4-pyridinyl]methanone], the pest or weed control at 125 g/ha in assay [1] and in assay [2] was 0% throughout. Further, the pest or weed control at 500 g/ha in assay [1] and in assay [2] was 0% each time.

For the molecule `Cn1nc(-c2ccc(F)cc2)nc1Oc1cccc(C(F)(F)F)c1` [Compound 5, 3-(4-fluorophenyl)-1-methyl-5-[3-(trifluoromethyl)phenoxy]-1H-1,2,4-triazole], in assay [1], the pest or weed control at 125 g/ha is 30% and the pest or weed control at 500 g/ha amounted to 90%. Further, in assay [2], the pest or weed control at 125 g/ha is 30% and the pest or weed control at 500 g/ha was found to be 60%.

Consider `COc1nc(-c2ccccc2)nn1Cc1ccnc(C(F)(F)F)c1` [Compound 32], for which the “Plant response rating (scale of 0 to 100 where 0 is no effect and 100 is complete control)” value in assay [3] (125 g ai/ha) was found to be 5; in assay [3] (250 g ai/ha) it was 20; in assay [4], 100. Further, the “Nutsedge, Yellow plant response rating (0 to 100)” value (shortened to “Nutsedge … (0 to 100)”) in assay [3] (31 g ai/ha) and in assay [3] (62 g ai/ha) was 0 each time. The “Waterhemp plant response rating (0 to 100)” value amounted to 90 in assay [4] (31 g ai/ha) and 100 in assay [4] (62 g ai/ha). For the same molecule, the figures for the “Plant response rating, Blackgrass” value in assay [5] (125 g ai/ha) and in assay [5] (500 g ai/ha) were 20 and 50, respectively.

As for `CS(=O)(=O)c1nc(-c2ccc(F)cc2)nn1Cc1ccnc(C(F)(F)F)c1` [Compound 29, 4-[[3-(4-fluorophenyl)-5-(methylsulfonyl)-1H-1,2,4-triazole-1-yl]methyl]-2-(trifluoromethyl)pyridine], in assay [1], the pest or weed control at 125 g/ha is 0% and the pest or weed control at 500 g/ha stood at 0%. In addition, in assay [2], the pest or weed control at 125 g/ha amounted to 0% and the pest or weed control at 500 g/ha turned out to be 0%.

Regarding `CCCc1nc(-c2ccc(F)cc2)nn1Cc1ccnc(C(F)(F)F)c1` [Compound 6, 4-[[3-(4-fluorophenyl)-5-propyl-1H-1,2,4-triazol-1-yl]methyl]-2-(trifluoromethyl)pyridine], the results for the “Plant response rating (scale of 0 to 100 where 0 is no effect and 100 is complete control)” value in assay [3] (125 g ai/ha) and in assay [3] (250 g ai/ha) were 35 and 50, respectively. The “Nutsedge … (0 to 100)” value was found to be 25 in assay [3] (31 g ai/ha) and 30 in assay [3] (62 g ai/ha). Moreover, the pest or weed control at 125 g/ha in assay [1] and in assay [2] was 90% each time. Moreover, the results for the pest or weed control at 500 g/ha in assay [1] and in assay [2] were 90% and 100%, respectively.

Consider `COc1nc(-c2ccc(C(F)(F)F)cc2)nn1Cc1ccnc(C(F)(F)F)c1` [Compound 25], for which the “Plant response rating, Blackgrass” value in assay [5] (31 g ai/ha) worked out at 10; in assay [5] (125 g ai/ha), 30.

In the case of `COc1nc(-c2ccc(F)cc2)nn1Cc1ccnc(C(F)(F)F)c1` [Compound 9, 4-[[3-(4-fluorophenyl)-5-methoxy-1H-1,2,4-triazol-1-yl]methyl]-2-(trifluoromethyl)pyridine], the “Plant response rating (scale of 0 to 100 where 0 is no effect and 100 is complete control)” value in assay [3] (125 g ai/ha) is on record as 35; in assay [3] (250 g ai/ha), 50; in assay [4], 100. Besides, the “Nutsedge … (0 to 100)” value in assay [3] (31 g ai/ha) was found to be 10; in assay [3] (62 g ai/ha), 5. Besides, the pest or weed control at 125 g/ha in assay [1] was found to be 90%; in assay [2], 50%. Moreover, the pest or weed control at 500 g/ha amounted to 100% in assay [1] and 90% in assay [2]. Besides, the “Waterhemp plant response rating (0 to 100)” value in assay [4] (31 g ai/ha) and in assay [4] (62 g ai/ha) was 100 each time.

`CCCOc1nc(-c2ccccc2)nn1Cc1ccnc(C(F)(F)F)c1` [Compound 33]: the “Plant response rating, Blackgrass” value in assay [5] (125 g ai/ha) came to 30; in assay [5] (500 g ai/ha), 50.

As for `CCOc1nc(-c2ccc(Cl)cc2)nn1Cc1ccnc(C(F)(F)F)c1` [Compound 26], the “Plant response rating, Blackgrass” value is given as 30 in assay [5] (31 g ai/ha) and 50 in assay [5] (125 g ai/ha).
